Where two headings read alike, the source gives them in different places.
Key:
[1] = Relative bioavailability of intranasal versus oral betahistine in humans, Example 6; type: in vivo; settings: human
[2] = Single-dose and repeat-dose intranasal toxicology study in beagle dogs (safety); type: in vivo; settings: dog
Excerpt: Salivation after betahistine treatment was previously reported to occur in dogs, it was transient in nature in the present study and resolved quickly. Body weights, clinical pathology and gross necropsy findings were unremarkable.

[3] = cited from earlier work
[4] = Single ascending-dose clinical trial of intranasal betahistine in healthy volunteers (safety); type: in vivo; settings: human
Description: The safety and pharmacokinetic profile of intranasal betahistine was further evaluated in a double-blind, randomized, placebo-controlled, single ascending-dose clinical trial involving a total of 32 healthy male and female volunteers. The main inclusion criteria were that subjects had to be aged 18-45 years and show a body mass index within the range of 18-30 kg/m^2. Subjects were required to fast for 8 hours prior to study drug administration and for 2 hours post-dose.
The betahistine was supplied as a 50 and 200 mg/mL solution in a HDPE bottle and spray pump pack (Aptar Classic Line) that delivers an accurate 100 μL per actuation. The study drug was delivered into the right nostril of subjects while they were in a supine position. For the 5 and 20 mg doses, one application of 50 and 200 mg/mL, respectively, was needed, whereas for the 10 and 40 mg doses, two applications of 50 and 200 mg/mL were required.

[5] = Toxicokinetic assessment of plasma betahistine and 2-PAA after intranasal betahistine (LC-MS/MS), Example 2; settings: both, beagle, dog, inhaled or intranasal
Description: The safety and pharmacokinetic profile of intranasal betahistine was first evaluated in a single dose toxicology study in male and female beagle dogs (14-21 months of age, weight 8.2-11.8 kg). Both the vehicle and test article were delivered in a single dose via a nasal spray pump (Aptar Classic Line) with a delivery volume of 100 μL into both nostrils at total dose levels of 0 (vehicle), 4, 20 or 80 mg of betahistine dihydrochloride. Each treatment group was made up of 1 dog/sex.
Plasma concentrations were measured with liquid chromatographic tandem mass spectrometry (LC-MS/MS; SCIEX API 5000 for betahistine and SCIEX API 4000 for 2-pyridylacetic acid (2-PAA)) with a validated method. Betahistine-^13CD3 dihydrochloride and 2-PAA-D4 hydrochloride served as internal standards. The standard calibration range—using a plasma sample volume of 0.05 mL—for betahistine was 0.05 to 50 ng/mL and for 2-PAA it was 1 to 1000 ng/mL. The limit of quantitation was 0.05 ng/mL for betahistine and 1.0 ng/mL for 2-PAA.
In case of betahistine, the method involved a liquid-liquid extraction; in case of 2-PAA it involved protein precipitation. For betahistine, plasma samples were extracted under basic conditions with an organic solvent; the organic phase was dried and reconstituted in reconstitution solvent. Approximately 0.1 mL of the aqueous layer was transferred into polypropylene vials for LC-MS/MS analysis. For 2-PAA, plasma samples were precipitated with a mixture of organic solvents, supernatant was diluted and 0.12 mL was transferred into polypropylene vials for LC-MS/MS analysis. Sample analysis was conducted using reversed phase chromatography.

[6] = intranasal single and repeated dose

**Q.** Which results are given for `CNCCc1ccccn1` [betahistine]?
**A.** AUC/Dose ([1]; intranasal 5 mg (0.07 mg/kg)): 3.01 (h · ng/mL)/(mg/kg); AUC/Dose ([1]; intranasal 10 mg (0.15 mg/kg)): 3.67 (h · ng/mL)/(mg/kg); AUC/Dose ([1]; intranasal 20 mg (0.29 mg/kg)): 5.60 (h · ng/mL)/(mg/kg); AUC/Dose ([1]; intranasal 40 mg (0.57 mg/kg)): 6.21 (h · ng/mL)/(mg/kg); test article-related clinical signs ([2]; intranasal 80 mg single dose and repeated dose 240 mg/day, transient): mild to moderate salivation; body weights, clinical pathology and gross necropsy findings [2, 6]: unremarkable; microscopic findings [2, 6]: No adverse treatment-related microscopic findings; plasma half-life ([3]; betahistine, humans): 180 to 240 min; Cmax ([3]; human, oral betahistine 24 mg, Chen et al.): < 0.5 ng/mL; absolute bioavailability ([3]; orally administered betahistine, estimated (SmPC)): around 1%; hematology, biochemistry, urinalysis, vital signs and electrocardiogram assessments ([4]; active- versus placebo-treated subjects): no differences; tolerability ([4]; intranasal 5, 10, 20 and 40 mg): well tolerated; Tmax [5]: 5 min; Cmax ([5]; 4 mg): 26 ng/mL; Cmax ([5]; 20 mg): 81 ng/mL; Cmax ([5]; 80 mg): 248 ng/mL

Source: US20200022963A1, “PHARMACEUTICAL COMPOSITION COMPRISING BETAHISTINE” (Otolanum AG, priority 2017, published 2020)
